US5204352A, “Compounds exhibiting anti-parasitic activity and a method for their use” (The United States of America as represented by the …, priority 1987, dated 1993)

Test system: Trypanosoma rhodesiense
Assay: In vivo trypanocidal activity in infected mice (protocol based on Rane et al.)
Parameters: Activity at dosage, value in parentheses (increase in survival): unit not given here
Method: The compounds of the present invention were evaluated biologically in vivo with groups of 5 mice at various dose levels. Unless otherwise indicated, the data are for subcutaneous administration. Dose levels marked with an asterisk are for peritoneal administration in a HEC+T medium. In addition, Table 2 present results of peritoneal administration with substituted quanylhydrazones. The biological evaluation was done according to a standard protocol based on the method described by Rane et al., Amer. J. Trop. Med Hyg. 25:395 (1976). […]

[1] = 13.3* mg/kg, peritoneal in HEC+T medium (Table I)
[2] = 26* mg/kg, peritoneal in HEC+T medium (Table I)
[3] = 106* mg/kg, peritoneal in HEC+T medium (Table I)
[4] = 212* mg/kg, peritoneal in HEC+T medium (Table I)
[5] = 424* mg/kg, peritoneal in HEC+T medium (Table I)

## C[n+]1c(-c2ccc(C=NNC3=NCCN3)cc2)cn2ccccc21 [BK50311]
0.42 mg/kg, subcutaneous
  Increase in survival: 6.6 days
  Trypanocidal activity, cures: 2/5
0.8 mg/kg, peritoneal (Table 2)
  Activity at dosage (C = Cures): INAC
0.83 mg/kg, subcutaneous
  Increase in survival: 1.5 days
  Trypanocidal activity, cures: 8/10
1.66 mg/kg, subcutaneous
  Increase in survival: 22.0 days
  Trypanocidal activity, cures: 9/10
1.7 mg/kg, peritoneal (Table 2)
  Activity at dosage, value in parentheses (increase in survival): 1.0
3.3 mg/kg, peritoneal (Table 2)
  Activity at dosage, value in parentheses (increase in survival): 1.6
3.3 mg/kg, subcutaneous
  Trypanocidal activity, cures: 5/5
6.6 mg/kg, subcutaneous
  Increase in survival: 10.0 days
  Trypanocidal activity, cures: 3/5
6.7 mg/kg, peritoneal (Table 2)
  Activity at dosage, value in parentheses (increase in survival): 7.7
13 mg/kg, peritoneal (Table 2)
  Activity at dosage, value in parentheses (increase in survival): 9.0
13.3 mg/kg, subcutaneous
  Trypanocidal activity, cures: 10/10
26 mg/kg, peritoneal (Table 2)
  Activity at dosage, value in parentheses (increase in survival): 13.5
[1]
  Increase in survival: 9.0 days
  Trypanocidal activity, cures: 9/10
[2]
  Increase in survival: 13.5 days
  Trypanocidal activity, cures: 13/15
53* mg/kg, peritoneal in HEC+T medium (Table I)
  Trypanocidal activity, cures: 5/5
[3]
  Trypanocidal activity, cures: 10/10
[4]
  Trypanocidal activity, cures: 5/5
[5]
  Trypanocidal activity, cures: 0/10

## Cc1ccn2cc(-c3ccc(C=NNC(=N)N)cc3)[n+](C)c2c1 [BK46219]
26.5 mg/kg, subcutaneous
  Increase in survival: 10.0 days
  Trypanocidal activity, cures: 8/10

## C[n+]1c(-c2ccc(C=NO)cc2)cn2ccccc21 [BJ90712]
106 mg/kg, subcutaneous
  Increase in survival: 4.2 days
  Trypanocidal activity, cures: 2/5

## Cc1ccc2n(c1)cc(-c1ccc(C(=N)N)cc1)[n+]2C [BK46166]
26.5 mg/kg, subcutaneous
  Increase in survival: 4.5 days
  Trypanocidal activity, cures: 2/5
53 mg/kg, subcutaneous
  Increase in survival: 1.6 days
  Trypanocidal activity, cures: 2/5
106 mg/kg, subcutaneous
  Increase in survival: 5.2 days
  Trypanocidal activity, cures: 2/5

## C[n+]1c(-c2ccc(C=NNC(=N)N)cc2)c([N+](=O)[O-])n2ccccc21 [BK47985]
1.6 mg/kg, subcutaneous
  Increase in survival: 7.0 days
  Trypanocidal activity, cures: 3/10
3.3 mg/kg, subcutaneous
  Trypanocidal activity, cures: 5/5
6.6 mg/kg, subcutaneous
  Increase in survival: 24.0 days
  Trypanocidal activity, cures: 4/5

## CC(=O)Nc1ccc(-c2cn3cc(I)ccc3[n+]2C)cc1 [BJ83306]
106 mg/kg, subcutaneous
  Increase in survival: 2.3 days
  Trypanocidal activity, cures: 3/10
212 mg/kg, subcutaneous
  Increase in survival: 3.9 days
  Trypanocidal activity, cures: 1/5
424 mg/kg, subcutaneous
  Increase in survival: 6.5 days
  Trypanocidal activity, cures: 4/10

## C[n+]1ccc(COc2ccc(C=NNC3=NCCN3)cc2)cc1 [BL12129]
3.3 mg/kg, subcutaneous
  Increase in survival: 6.8 days
  Trypanocidal activity, cures: 1/5
13 mg/kg, subcutaneous
  Increase in survival: 5.0 days
  Trypanocidal activity, cures: 8/10

## C=CC[n+]1c(-c2ccc(C=NNC(=N)N)cc2)cn2ccccc21 [BK11770]
13.3 mg/kg, subcutaneous
  Trypanocidal activity, cures: 5/5

## CSC(=N)NN=Cc1ccc(-c2cn3ccccc3[n+]2C)cc1 [BK47921]
26.5 mg/kg, subcutaneous
  Trypanocidal activity, cures: 5/5

## CC(=O)Nc1ccc(-c2cn3c([n+]2C)CCCC3)cc1 [BJ51911]
26.5 mg/kg, subcutaneous
  Increase in survival: 1.2 days
  Trypanocidal activity, cures: 1/10
53 mg/kg, subcutaneous
  Increase in survival: 6.4 days
106 mg/kg, subcutaneous
  Increase in survival: 7.4 days
  Trypanocidal activity, cures: 3/10

## C[n+]1c(C=Cc2ccc(C=NNC(=N)N)cc2)cn2ccccc21 [BL09462]
0.1 mg/kg, subcutaneous
  Increase in survival: 5.2 days
  Trypanocidal activity, cures: 6/10
0.2 mg/kg, subcutaneous
  Trypanocidal activity, cures: 5/5
0.8 mg/kg, subcutaneous
  Trypanocidal activity, cures: 10/10

## C[n+]1c(-c2ccc(C(=N)N)cc2)cn2ccccc21 [BK16471]
13.3 mg/kg, subcutaneous
  Increase in survival: 3.2 days
  Trypanocidal activity, cures: 2/10
26.5 mg/kg, subcutaneous
  Trypanocidal activity, cures: 10/10
53 mg/kg, subcutaneous
  Trypanocidal activity, cures: 5/5

## C=CC[n+]1c(-c2ccc(N(CC)C(C)=O)cc2)cn2ccccc21 [BK02566]
[3]
  Increase in survival: 2.8 days
  Trypanocidal activity, cures: 1/10
[4]
  Increase in survival: 4.7 days
  Trypanocidal activity, cures: 1/5
[5]
  Increase in survival: 9.9 days
  Trypanocidal activity, cures: 5/10
